Measurements as given in ChEMBL document CHEMBL1201862, “PubChem BioAssay data set” (2004).
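Tested at 5 concentrations; 48 h exposure; 96-well plates; endpoints linearly interpolated, else capped at highest concentration. GI50 is the concentration that inhibits growth by half.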 Active and inactive are the calls of the source. Cut-off read from the data, not from the text of the source: active = GI50 up to about 1.1 µM and inactive = higher.

Tests used:
Experiment in all cases: NCI tumour cell line growth inhibition, 48 h
[1] = tested on: 786-0
[2] = tested on: A498
[3] = tested on: A549
[4] = tested on: ACHN
[5] = tested on: BT-549
[6] = tested on: CAKI-1
[7] = tested on: CCRF-CEM
[8] = tested on: COLO 205
[9] = tested on: DU-145
[10] = tested on: EKVX
[11] = tested on: HCC 2998
[12] = tested on: HCT-116
[13] = tested on: HCT-15
[14] = tested on: HL-60
[15] = tested on: HOP-62
[16] = tested on: HOP-92
[17] = tested on: HT-29
[18] = tested on: Hs-578T
[19] = tested on: IGROV-1
[20] = tested on: KM12
[21] = tested on: LOX IMVI
[22] = tested on: M14
[23] = tested on: MCF7
[24] = tested on: MDA-MB-231
[25] = tested on: MDA-MB-435
[26] = tested on: MDA-N
[27] = tested on: Malme-3M
[28] = tested on: NCI-H23
[29] = tested on: NCI-H460
[30] = tested on: NCI-H522
[31] = tested on: NCI/ADR-RES
[32] = tested on: OVCAR-3
[33] = tested on: OVCAR-4
[34] = tested on: OVCAR-5
[35] = tested on: OVCAR-8
[36] = tested on: PC-3
[37] = tested on: RPMI-8226
[38] = tested on: RXF 393
[39] = tested on: SF-268
[40] = tested on: SF-295
[41] = tested on: SF-539
[42] = tested on: SK-MEL-28
[43] = tested on: SK-MEL-2
[44] = tested on: SK-MEL-5
[45] = tested on: SN12C
[46] = tested on: SNB-19
[47] = tested on: SNB-75
[48] = tested on: SR
[49] = tested on: SW-620
[50] = tested on: T47D
[51] = tested on: TK-10
[52] = tested on: U-251
[53] = tested on: UACC-257
[54] = tested on: UACC-62
[55] = tested on: UO-31
[56] = tested on: DMS-273
[57] = tested on: K562
[58] = tested on: KM-20L2
[59] = tested on: LXFL 529
[60] = tested on: M19-MEL
[61] = tested on: MOLT-4
[62] = tested on: NCI-H226
[63] = tested on: SK-OV-3
[64] = tested on: SNB-78

Measured: GI50

COc1ccc(C2N(c3ccc(F)c([N+](=O)[O-])c3)C(=O)N3C(c4ccc(OC)cc4)N(c4ccc(F)c([N+](=O)[O-])c4)C(=O)N23)cc1 (stereo unspecified)
inactive: [1] > 100 µM | [2] > 100 µM | [3] > 100 µM | [4] > 100 µM | [5] > 100 µM | [6] > 100 µM | [7] > 100 µM | [8] > 100 µM | [9] > 100 µM | [10] > 100 µM | [11] > 100 µM | [12] > 100 µM | [14] > 100 µM | [15] > 100 µM | [16] 23.1 µM | [17] > 100 µM | [18] > 100 µM | [19] > 100 µM | [20] > 100 µM | [21] > 100 µM | [22] 65.9 µM | [23] > 100 µM | [24] 57.1 µM | [25] > 100 µM | [26] > 100 µM | [27] > 100 µM | [28] > 100 µM | [29] > 100 µM | [30] > 100 µM | [31] > 100 µM | [32] > 100 µM | [33] > 100 µM | [34] > 100 µM | [35] > 100 µM | [36] > 100 µM | [37] > 100 µM | [38] > 100 µM | [39] > 100 µM | [40] > 100 µM | [41] > 100 µM | [42] > 100 µM | [43] > 100 µM | [44] > 100 µM | [45] > 100 µM | [46] > 100 µM | [47] > 100 µM | [48] > 100 µM | [49] > 100 µM | [50] > 100 µM | [51] > 100 µM | [52] > 100 µM | [53] > 100 µM | [54] > 100 µM | [55] > 100 µM
> 100 µM: [13]

CC1(C)CCC(=O)c2c(O)ccc(O)c21
inactive: [1] > 100 µM | [3] > 100 µM | [6] 71.8 µM | [8] > 100 µM | [56] > 100 µM | [10] > 100 µM | [11] > 100 µM | [12] 51.9 µM | [16] 15.4 µM | [17] 30.1 µM | [19] > 100 µM | [57] 26.1 µM | [58] 83.4 µM | [20] 83.9 µM | [59] 42.8 µM | [60] > 100 µM | [61] 41.7 µM | [27] > 100 µM | [62] > 100 µM | [28] > 100 µM | [30] 55.8 µM | [32] > 100 µM | [33] > 100 µM | [34] > 100 µM | [35] 91.8 µM | [37] 55.3 µM | [38] 18.4 µM | [39] > 100 µM | [40] > 100 µM | [41] 77.4 µM | [42] 39.8 µM | [43] 86.5 µM | [44] > 100 µM | [63] > 100 µM | [45] > 100 µM | [46] > 100 µM | [47] 23.1 µM | [64] > 100 µM | [48] > 10 µM | [49] 48.4 µM | [51] > 100 µM | [52] > 100 µM | [53] 25.1 µM | [54] 66.8 µM | [55] > 100 µM
83.9 µM: [13]

COc1ccc(Br)c(/C=N\c2cccc3cc(OC)c(OC)cc23)c1
inactive: [1] 13.7 µM | [2] > 78.5 µM | [3] > 91.2 µM | [4] 25.5 µM | [5] 8.3 µM | [6] > 82.4 µM | [7] 2.82 µM | [8] 79.3 µM | [9] 52.1 µM | [10] 97.1 µM | [11] 28.4 µM | [12] 4.35 µM | [15] 9.64 µM | [16] 20.2 µM | [17] 20 µM | [18] 5.21 µM | [19] 25.8 µM | [57] 3.52 µM | [20] 21.1 µM | [21] 4.57 µM | [22] 3.84 µM | [23] 2.33 µM | [24] 15.5 µM | [25] 2.8 µM | [26] 3.44 µM | [61] 4.81 µM | [27] 34 µM | [62] 39 µM | [28] 32.8 µM | [29] 35.5 µM | [30] > 61.1 µM | [31] 16.8 µM | [32] 9.12 µM | [33] 40.6 µM | [34] 72.1 µM | [35] 6.28 µM | [36] 11.1 µM | [37] 3.44 µM | [38] 39.1 µM | [39] 7 µM | [40] 12.8 µM | [41] 2.64 µM | [42] 13.3 µM | [43] 42.3 µM | [44] 17.5 µM | [63] 55.1 µM | [45] 12.8 µM | [46] 13.2 µM | [47] 38.8 µM | [48] 2.42 µM | [49] 7.08 µM | [50] 58.5 µM | [51] 28.1 µM | [52] 2.99 µM | [53] 69.8 µM | [54] 10.3 µM | [55] 21.5 µM
2.47 µM: [13]
active: [14] 0.865 µM

CC(=O)O[C@H]1C(=O)[C@@]2(C)[C@H]([C@H](OC(=O)c3ccccc3)[C@]3(O)C[C@H](OC(=O)[C@H](O)[C@@H](NC(=O)C(C)(O)C(C)O)c4ccccc4)C(C)=C1C3(C)C)[C@]1(OC(C)=O)CO[C@@H]1C[C@@H]2O (stereo partly specified)
17 µM: [13]
active: [3] 0.573 µM | [5] 0.142 µM | [7] 0.183 µM | [8] 0.0933 µM | [9] 0.927 µM | [11] 0.141 µM | [12] 0.14 µM | [14] 0.0859 µM | [15] 0.282 µM | [16] 0.44 µM | [17] 0.128 µM | [18] 0.0964 µM | [19] 0.205 µM | [57] 0.172 µM | [20] 0.167 µM | [21] 0.607 µM | [22] 0.337 µM | [23] 0.076 µM | [24] 0.359 µM | [25] 0.0352 µM | [26] 0.0308 µM | [61] 0.282 µM | [27] 0.226 µM | [28] 0.282 µM | [29] 0.282 µM | [30] 0.107 µM | [32] 0.172 µM | [34] 0.687 µM | [36] 0.226 µM | [37] 0.0865 µM | [38] 0.316 µM | [39] 0.31 µM | [41] 0.112 µM | [43] 0.124 µM | [44] 0.207 µM | [63] 0.231 µM | [45] 0.485 µM | [46] 0.796 µM | [47] 0.0514 µM | [48] 0.133 µM | [49] 0.195 µM | [50] 0.929 µM | [52] 0.239 µM | [53] 0.381 µM | [54] 0.242 µM
inactive: [1] 1.33 µM | [2] 9.44 µM | [4] 14.4 µM | [6] 15.5 µM | [10] > 50 µM | [31] > 50 µM | [33] 13.2 µM | [35] 1.42 µM | [40] 3.72 µM | [51] 5.69 µM | [55] 27.6 µM

COc1ccc(/C=C\c2cc(OC)c(OC)c(OC)c2)cc1O [COMBRETASTATIN A4]
active: [9] 0.01 µM | [18] 0.583 µM | [34] 0.34 µM | [51] 0.204 µM
inactive: [5] > 10 µM | [10] 1.22 µM | [17] 1.72 µM | [58] 1.61 µM | [50] 41 µM
